By Kd is commonly meant the concentration at which binding is half-saturated. A higher Kd goes with weaker binding.

The test concerns the target T1, NDUFA6.
T1 construct: SPR protein; species is a guess, rat possible
As to the kind of experiment: SPR, Biacore 8K, […] Langmuir kinetic fit. It counts as binding. Background: In SPR one partner is held on a chip, and binding of the other changes the refractive index at the surface.

On to `O=C(/C=C/c1ccc(O)c(O)c1)O[C@@H]1C[C@](OC(=O)/C=C/c2ccc(O)c(O)c2)(C(=O)O)C[C@@H](O)[C@H]1O` [1,5-dicaffeoylquinic acid], for which binding was characterised by a dissociation constant (Kd) of 735 nM.

The values are drawn from PMC12536539, “Detumescence Analgesic Plaster mitigates knee osteoarthritis via active ingredients targeting mitochondrial complex 1/AMPK/MYL3-regulated cartilage homeostasis” (Chinese Medicine, 2025).
